Data published in patent US20200268707A1, “METHODS OF MODULATING PROTEIN EXOCYTOSIS AND USES OF SAME IN THERAPY” (Yeda Research and Development Co. Ltd., priority 2016, published 2020).
“Also recorded” adds a separate entry of the source.

Assays:
HepG2 cells = assay: Live/dead ratio, trypan blue and automated cell counter; assay type: cell-based, human; conditions: HepG2, secretory; 2 μM monensin over 2 days
Protocol: (§1) Various cell lines treated with 2 μM of monensin over 2 days show increased cell death. Cells were counted using countess 2 automated cell counter to determine live/dead ratios.
(§2) HEK 293, IMR-90 and HeLa cells were grown in DMEM supplemented with 10% fetal bovine serum, 1% Penicillin/streptomycin and L-glutamine (2 mmole/liter) (Biological industries) at 37° C. with 5% CO2. Drugs were introduced to cells for 2 hrs at varying concentrations. Tunicamycin (Sigma) was given at 5 μg/ml. Treatment with the glycosylation inhibitor tunicamycin is known to cause accumulation of unfolded glycoproteins in the ER which is followed by […] of these aberrant proteins. […] Monensin (Enco scientific services) was given at 2 mM and MG-132 (Biotest) at 40 μM. Monensin is an antibiotic, commercially known as Golgi-stop. This drug inhibits the transport of proteins between the medial and trans-Golgi stacks thus also inhibiting phosphorylation, addition of galactose to glycoproteins and sulfation that occur in the trans-Golgi (Griffiths et al., 1983; Rosa et al., 1992). Cell death assessment was done by trypan blue staining and counted with Countess IFM automated cell counter (Thermo Fisher). Proliferation of mammalian cells was measured by XTT assay.
(§3) Accumulation of proteins in cells is highly cytotoxic. This cytotoxicity is potentially higher in highly secretory cells, wherein a large mass of proteins is constantly moving through the Golgi apparatus. […] The present inventors examined the long-term effect of Golgi traffic inhibition on secretory cells. Four human cell lines were selected, two that are non-secretory (HEK293 and HeLa) and two secretory cell lines (HepG2 and RPMI 8226) and assessed their live/dead ratios over 2 days of treatment with monensin.

HeLa cells = assay: as above; assay type: cell-based, human; conditions: non-secretory, 2 μM monensin over 2 days
Protocol: as §1, §2, §3

HEK293 cells = assay: as above; assay type: cell-based, human; conditions: HEK293, non-secretory; 2 μM monensin over 2 days
Protocol: as §1, §2, §3

[1] = system: K48 linked polyubiquitination in the Golgi of RPMI 8226 cells; assay: Western blot against K48-linked polyubiquitin chains of Golgi fractions from RPMI 8226 cells; assay type: cell-based, human; conditions: 2 hours of monensin treatment
Protocol: (§4) (A) Quantification of live/dead cells following 48 hours of monensin treatment (2 μM). (B) Quantification of cell death of RPMI-8226 cells over 3 days of treatment with monensin […]. (C) Western blot against K48-linked polyubiquitin chains of Golgi fractions collected from RPMI 8226 cells either untreated or treated with monensin for 2 hrs. (D) XTT assay of untreated HeLa cells following siRNA mediated knockdowns as indicated Pvalue(siPSMD6+siHACE1)=0.002. (E) As in D, treated for 48 hours with monensin (200 nM) Pvalue(siPSMD6+siHACE1)=0.001. (F) Schematic outline of in-vivo experiment. (G) ELISA results of IgG2β levels in blood of mice injected with MM 5TGM1 cells over a period of 32 days. (H) FACS analysis and quantification of multiple myeloma cells (MM) and normal B cells (BC) in spleens of control vs. monensin-treated mice Pvalue(MM monensin)=0.008. (I) FACS analysis and quantification of multiple myeloma cells (MM) and normal B cells (BC) in bone marrow of control vs. monensin-treated mice. Pvalue(MM monensin)=0.001. (J) Spleen sizes of untreated, injected control vs. injected monensin-treated mice and uninjected, untreated mice.
Cells were grown to confluence in 4-15 cm plates before being scraped and homogenized in swelling buffer (Merbl and Kirschner, 2014) using 20 strokes in a kontess dounce homogenizer. […]

RPMI 8226 cells = assay: Live/dead ratio, trypan blue and automated cell counter; assay type: cell-based, human
Protocol: as §1
as §4, with “(E) As in D, treated for 48 hours with monensin (200 nM) Pvalue(siPSMD6+siHACE1)=0.001. (F) Schematic outline of in-vivo experiment. (G) ELISA results of IgG2β levels in blood of mice injected with MM 5TGM1 cells over a period of 32 days.” left out, “Pvalue(MM monensin)=0.001. (J) Spleen sizes of untreated, injected control vs. injected monensin-treated mice and uninjected, untreated mice.” left out
HEK 293, IMR-90 and HeLa cells were grown in DMEM supplemented with 10% fetal bovine serum, 1% Penicillin/streptomycin and L-glutamine (2 mmole/liter) (Biological industries) at 37° C. with 5% CO2. […] Cell death assessment was done by trypan blue staining and counted with Countess IFM automated cell counter (Thermo Fisher). Proliferation of mammalian cells was measured by XTT assay. […]

[2] = system: multiple myeloma cells (5TGM1) in mice; assay: In vivo multiple myeloma model, mice injected with 5TGM1 cells; conditions: 80 μM monensin in drinking water for 5 days
Protocol: 5TMM mice, a breed of C57BL/KalwRij mice that are sensitive to MM, were injected with 5TGM1 murine MM cell line and blood levels of IgG2B were measured periodically over 32 days by ELISA. Mice were split into 2 groups, the control group received 0.35% ethanol in drinking water while the test group received 80 μM monensin (initially solubilized in 70% ethanol) in drinking water. Mice were sacrificed after 5 days of treatment. Spleens and bone marrow were harvested, homogenized and analyzed by FACS.
In view of the above-results that inhibition of secretion may provide a novel therapeutic opportunity in MM, it was tested whether monensin treatment may inhibit progression of MM disease. To this end, mice were injected with 5TGM1 cells (FIG. 13F) and followed MM progression by monitoring blood levels of IgG2β by ELISA (FIG. 13G). Mice that developed MM were then administered with 80 μM monensin in the drinking water for 5 days.

MRL/LPR mice = assay: Mouse model of systemic lupus erythematosus; assay type: in vivo
Description: FIGS. 14A-14B show the effect of monensin in treatment of systemic lupus erythematosus. […] Furthermore, monensin treated mice were more relaxed when compared to mock (0.35% ethanol) treated mice.

## CC[C@@]1([C@@H]2O[C@@H]([C@H]3O[C@@](O)(CO)[C@H](C)C[C@@H]3C)C[C@@H]2C)CC[C@H]([C@]2(C)CC[C@]3(C[C@H](O)[C@@H](C)[C@@H]([C@@H](C)[C@@H](OC)[C@H](C)C(=O)O)O3)O2)O1 [monensin]
HepG2 cells
  cell death (live/dead ratio): more susceptible to cell death
HeLa cells
  cell death (live/dead ratio): little effect; also recorded: largely insensitive
HEK293 cells
  cell death (live/dead ratio): little effect
[1]
  K48 linked polyubiquitination in the Golgi: sufficient for induction of K48 linked polyubiquitination
RPMI 8226 cells; RPMI 8226 multiple myeloma, secretory, 2 μM monensin over 2 days
  cell death (live/dead ratio): greatest; also recorded: particularly sensitive
RPMI 8226 cells; RPMI-8226 cells, 3 days of treatment with monensin
  MM cells killed: 99%
[2]
  spleen size smaller than that of control mice: ~30%
[2]; control 22%
  CD138+, CD19− multiple myeloma cells in the spleen: 8%
[2]; control 62
  CD138+, CD19− multiple myeloma cells in bone marrow (BM): 25%
[2]; both spleen and BM
  CD138-, CD19+ normal B-cell levels: higher than in the control group
MRL/LPR mice; 80 μM monensin in drinking water
  behaviour compared to mock treated mice: more relaxed
MRL/LPR mice; 80 μM monensin in drinking water from 14 weeks old
  skin lesions: abolished the appearance of skin lesions; also recorded: do not exhibit skin lesions
MRL/LPR mice; 80 μM monensin in drinking water, vs mock (0.35% ethanol)
  splenomegaly / spleen weight: significantly reduced splenomegaly; also recorded: do not show an aberrant increase in weight
